Measured values as given in patent publication US9133099B2, “Compounds and their salts specific to the PPAR receptors and the EGF receptors and their use in the medical field” (Nogra Pharma Limited, priority 2005, dated 2015).

Key:
PPARγ = biological target: T1, PPARγ (Homo sapiens, UniProt P37231); experiment: PPARγ transcriptional activity, renilla luciferase/PPRE reporter gene in transfected HT-29 cells; assay type: cell-based; conditions: 24 hours
T1 construct: transient transfections of epithelial cells with the renilla luciferase and PPRE plamids; endogenous in cells; host or cells: HT-29 human colon carcinoma cells
T1 sequence (P37231 1-505): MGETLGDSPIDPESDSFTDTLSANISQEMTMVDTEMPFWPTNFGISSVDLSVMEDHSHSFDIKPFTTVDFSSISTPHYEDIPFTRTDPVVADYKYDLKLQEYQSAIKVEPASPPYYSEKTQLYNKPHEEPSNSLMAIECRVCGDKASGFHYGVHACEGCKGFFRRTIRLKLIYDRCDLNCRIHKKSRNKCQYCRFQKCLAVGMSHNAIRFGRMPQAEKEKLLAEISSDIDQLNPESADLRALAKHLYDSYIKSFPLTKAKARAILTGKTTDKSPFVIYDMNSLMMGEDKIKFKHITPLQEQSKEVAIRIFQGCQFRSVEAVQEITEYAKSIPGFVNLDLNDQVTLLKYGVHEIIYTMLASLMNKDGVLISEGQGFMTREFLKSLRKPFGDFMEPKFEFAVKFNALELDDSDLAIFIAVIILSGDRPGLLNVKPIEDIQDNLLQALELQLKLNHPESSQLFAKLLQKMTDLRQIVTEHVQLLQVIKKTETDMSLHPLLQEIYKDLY
Protocol: Activation of PPARγ results in a cascade of reactions leading to a binding to specific DNA sequence elements termed peroxisome proliferator response elements (PPRE) (7-9).
We investigated PPARγ transcriptional activity by transient transfections of epithelial cells with the renilla luciferase and PPRE plamids. To evaluate if the new molecules have more efficacy than 5-ASA to stimulate PPARγ activation, we tested these molecules at a concentration of 1 mM. […] Cells were stimulated with the different molecules during 24 hours.
FIG. 2 represents all the results obtained for each molecule assessed in 2 or 3 experiments done in triplicate. Reproducibility between the different experiments is good and similar to data described in the literature.

DLD-1 cells = experiment: Colon cancer cell growth, BrdU incorporation, DLD-1 cells; assay type: cell-based, human; conditions: for effect on cell growth at high doses (in words) / inhibition at 10000 µM: 10 mM; for effect on cell growth at high doses (in words): differences among groups not statistically significant; for inhibition at 500 µM / inhibition at 1000 µM / inhibition at 2500 µM / inhibition at 5000 µM / inhibition at 10000 µM: Homo sapiens, BrdU; for inhibition at 500 µM: 0.5 mM; for inhibition at 500 µM / inhibition at 1000 µM / inhibition at 2500 µM / inhibition at 5000 µM / inhibition at 10000 µM / effect on cell growth (in words): DLD-1 cells, 48 hours; for inhibition at 1000 µM: 1 mM; for inhibition at 2500 µM: 2.5 mM; for inhibition at 5000 µM: 5 mM; for effect on cell growth (in words): 0.5-10 mM
Protocol: (§1) The following substances (i e 20, 34, 35, 39 and 40) were tested for their ability to modulate colon cancer cell growth. For this purpose, three human colon carcinoma cell lines (i.e. HT-29, HT-115 and DLD-1) were used. These cell types were selected on the basis of the cyclooxigenase-2 (COX-2) expression. Indeed. HT-115 cells express a biologically active COX-2, HT-29 cells express a non-functional COX-2 isoform, and DLD-1 are COX-2-deficient cells.
HT-29 and DLD-1 cells were cultured in McCoy and RPMI1640 media respectively, supplemented with 10% fetal bovine serum (FBS), 1% penicillin/streptomycin (P/S) and […] gentamycin. HT-115 were cultured in DMEM medium supplemented with 15% FBS and 1% P/S. Cells were maintained in a humidified Incubator at 37° C., in the presence of 5% CO2.
For cell growth assays, single-cell suspensions were plated at 2×10^3 cells/well (4×10^3 cells/well for HT115) in 96-well culture dishes in medium containing 0.5% FBS and allowed to adhere. The non-adherent cells were then removed, and fresh medium containing 0.5% FBS was added into each well. Cells were cultured in the presence or absence of the specified substances. Each substance was dissolved as a 25 mM stock solution in culture medium containing 0.5% FBS, and the pH of each stock solution was adjusted to 7.4, if necessary, with NaOH. Substances were used at a final concentration ranging from 0.5 to 10 mM.
(§2) Cell proliferation was determined by measuring the incorporation of 5-bromo-2′-deoxyuridine (BrdU) into DNA using a commercially available cell proliferation kit (Roche Diagnostics, Monza, Italy). BrdU was added to the cell cultures during the last 6 hours of incubation, and the level of BrdU-positive cells was assessed after 48 h culture by enzyme-linked immunosorbent assay (ELISA). Optical density (OD) was determined at 450 nm using an ELISA reader. Experiments were performed in triplicate and the results are reported as the mean t standard deviation (SD).
Cells were cultured in the presence or absence of the compounds, and cell growth was then assessed by the colorimetric (BrdU) assay after 48 hours culture.

HT-29 cells = experiment: Colon cancer cell growth, BrdU incorporation, HT-29 cells; assay type: cell-based, human; conditions: 0.5-10 mM, 48 hours
Protocol: (§3) FIG. 3 and FIG. 4: Effect of the specified substances on the proliferation of human colon carcinoma cell lines (i.e. HT29, HT 115 and DLDI). Cells were treated with increasing concentrations of substances (0.5-10 mM)) for 48 hours and the proliferation was determined by using a colorimetric assay for the measurement of BrdU incorporation. Optical density (OD) was determined at 450 nm using an ELISA reader.
as §1, with “cells. […]” for “cells.”
as §2, with “Experiments were performed in triplicate and the results are reported as the mean t standard deviation (SD).” left out

HT-115 cells = experiment: Colon cancer cell growth, BrdU incorporation, HT-115 cells; assay type: cell-based, human; conditions: 0.5-10 mM, 48 hours
Protocol: as §3
as §1, with “cells. […]” for “cells.”
as §2, with “Experiments were performed in triplicate and the results are reported as the mean t standard deviation (SD).” left out

SMILES | increase of the reporter gene activity (PPARγ activity) (PPARγ; 1 mM) [fold] | increase of the reporter gene activity (PPARγ activity) (PPARγ; 30 mM, positive control) [fold] | effect on cell growth at high doses (in words) (DLD-1 cells) | inhibition at 500 µM (DLD-1 cells) [%] | inhibition at 1000 µM (DLD-1 cells) [%] | inhibition at 2500 µM (DLD-1 cells) [%] | inhibition at 5000 µM (DLD-1 cells) [%] | inhibition at 10000 µM (DLD-1 cells) [%] | effect on cell growth (in words) (DLD-1 cells) | significance of cell growth inhibition (in words) (DLD-1 cells; final concentration of 5 or 10 mM, cell line not specified) | effect on cell growth (in words) (HT-29 cells) | effect on cell growth (in words) (HT-115 cells)
Nc1ccc(O)c(C(=O)O)c1 [Compound 5-ASA, 5-amino salicylic acid, reference compound] |  | 2.8±0.7 |  |  |  |  |  |  |  |  |  | 
Nc1cccc(CC(O)C(=O)O)c1 (racemic) [Compound 20, (±)-2-hydroxy-3-(3′-aminophenyl)-propanoic acid] |  |  |  | 4.3 | 12.8 | 16.2 | 25.6 | 47 | marked anti-proliferative effect in a dose-dependent fashion | significantly inhibit cell growth | marked anti-proliferative effect in a dose-dependent fashion | marked anti-proliferative effect in a dose-dependent fashion
COC(Cc1ccc(N)cc1)C(=O)O (racemic) [Compound 34, (±)-2-methoxy-3-(4′-aminophenyl)-propionic acid] | 4.8±0.71 |  | slightly reduced the cell growth | 0 | 3.6 | 1.8 | 3.6 | 15.1 |  |  |  | 

Second part, led by results:

increase of the reporter gene activity (PPARγ activity) (PPARγ; 1 mM) [fold] | increase of the reporter gene activity (PPARγ activity) (PPARγ; 30 mM, positive control) [fold] | SMILES | effect on cell growth at high doses (in words) (DLD-1 cells) | inhibition at 500 µM (DLD-1 cells) [%] | inhibition at 1000 µM (DLD-1 cells) [%] | inhibition at 2500 µM (DLD-1 cells) [%] | inhibition at 5000 µM (DLD-1 cells) [%] | inhibition at 10000 µM (DLD-1 cells) [%] | effect on cell growth (in words) (DLD-1 cells) | significance of cell growth inhibition (in words) (DLD-1 cells; final concentration of 5 or 10 mM, cell line not specified) | effect on cell growth (in words) (HT-29 cells) | effect on cell growth (in words) (HT-115 cells)
2.73±0.31 |  | CCOC(Cc1ccc(N)cc1)C(=O)O (racemic) [Compound 39, (±)-2-ethoxy 3-(4′-aminophenyl)-propionic acid] | slightly reduced the cell growth | 1.6 | 3.3 | 8.2 | 11.5 | 12.8 |  |  |  | 
2.64±0.40 |  | COC(Cc1cccc(N)c1)C(=O)O (racemic) [Compound 35, (±)-2-methoxy-3-(3′-aminophenyl)-propionic acid] |  | 0 | 3.2 | 1.6 | 6.4 | 4.8 | no inhibition in cell growth |  |  | 
3.4±0.97 |  | CCOC(Cc1cccc(N)c1)C(=O)O (racemic) [Compound 40, (±)-2-ethoxy-3-(3′-aminophenyl)-propanoic acid] |  | 2 | 0 | 0 | 0 | 2.7 | no inhibition in cell growth |  |  | 
